Reference: the supplement of paper PMC10307832

Key:
Assay in all cases: relative viability (nuclei count vs DMSO), 5 days (fraction); higher = more cells survive
[1] = test system: CAL-12T
Outline: (§1)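 Nuclei were stained with Hoechst during a one-step fixation (final 0.05% Triton X-100, 1% formaldehyde, 1 ug/ml Hoechst) carried out 5 days after dosing, then counted on 4× images. The cells, lung cancer lines in 1536-well plates, had been dosed by pin tool the day after seeding with one drug alone or a fixed anchor-drug dose plus five library-drug doses (not always all listed) in √10 steps. Relative viability is the nuclei count in treated wells divided by that in vehicle wells, and each value is the median of duplicate plates.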

[2] = test system: LK-2
Outline: as §1

[3] = test system: NCI-H1755
Outline: as §1

[4] = test system: Calu-6
Outline: as §1

[5] = test system: A549
Outline: as §1

[6] = test system: NCI-H1651
Outline: as §1

[7] = test system: A-427
Outline: as §1

[8] = test system: IA-LM
Outline: as §1

[9] = test system: EBC-1
Outline: as §1

[10] = test system: NCI-H1703
Outline: as §1

[11] = test system: NCI-H1299
Outline: as §1

CCNC(=O)c1noc(-c2cc(C(C)C)c(O)cc2O)c1-c1ccc(CN2CCOCC2)cc1 [Luminespib] + C[C@]1(O)C[C@@H](c2nc(-c3ccc4ccc(-c5ccccc5)nc4c3)c3c(N)nccn32)C1 [Linsitinib] (partner 1 µM)
relative viability ([1]; first compound 0.002 µM): 0.761
relative viability ([1]; first compound 0.006325 µM): 0.787
relative viability ([1]; first compound 0.02 µM): 0.72
relative viability ([1]; first compound 0.06325 µM): 0.128
relative viability ([1]; first compound 0.2 µM): 0.115
relative viability ([2]; first compound 0.002 µM): 0.747
relative viability ([2]; first compound 0.006325 µM): 0.522
relative viability ([2]; first compound 0.02 µM): 0.455
relative viability ([2]; first compound 0.06325 µM): 0.301
relative viability ([2]; first compound 0.2 µM): 0.109
relative viability ([3]; first compound 0.002 µM): 0.974
relative viability ([3]; first compound 0.006325 µM): 0.944
relative viability ([3]; first compound 0.02 µM): 0.98
relative viability ([3]; first compound 0.06325 µM): 0.946
relative viability ([3]; first compound 0.2 µM): 0.921
relative viability ([4]; first compound 0.002 µM): 1.08
relative viability ([4]; first compound 0.006325 µM): 0.783
relative viability ([4]; first compound 0.02 µM): 0.712
relative viability ([4]; first compound 0.06325 µM): 0.0985
relative viability ([4]; first compound 0.2 µM): 0.0978
relative viability ([5]; first compound 0.002 µM): 0.645
relative viability ([5]; first compound 0.006325 µM): 0.583
relative viability ([5]; first compound 0.02 µM): 0.236
relative viability ([5]; first compound 0.06325 µM): 0.14
relative viability ([5]; first compound 0.2 µM): 0.0621
relative viability ([6]; first compound 0.002 µM): 0.874
relative viability ([6]; first compound 0.006325 µM): 0.983
relative viability ([6]; first compound 0.02 µM): 1.08
relative viability ([6]; first compound 0.06325 µM): 0.308
relative viability ([6]; first compound 0.2 µM): 0.174
relative viability ([7]; first compound 0.002 µM): 1.12
relative viability ([7]; first compound 0.006325 µM): 1.09
relative viability ([7]; first compound 0.02 µM): 0.918
relative viability ([7]; first compound 0.06325 µM): 1.12
relative viability ([7]; first compound 0.2 µM): 1.09
relative viability ([8]; first compound 0.002 µM): 0.601
relative viability ([8]; first compound 0.006325 µM): 0.424
relative viability ([8]; first compound 0.02 µM): 0.284
relative viability ([8]; first compound 0.06325 µM): 0.0358
relative viability ([8]; first compound 0.2 µM): 0.0299
relative viability ([9]; first compound 0.002 µM): 0.919
relative viability ([9]; first compound 0.006325 µM): 0.89
relative viability ([9]; first compound 0.02 µM): 0.273
relative viability ([9]; first compound 0.06325 µM): 0.0912
relative viability ([9]; first compound 0.2 µM): 0.0942
relative viability ([10]; first compound 0.002 µM): 1.26
relative viability ([10]; first compound 0.006325 µM): 0.448
relative viability ([10]; first compound 0.02 µM): 0.426
relative viability ([10]; first compound 0.06325 µM): 0.0721
relative viability ([10]; first compound 0.2 µM): 0.123
relative viability ([11]; first compound 0.002 µM): 0.978
relative viability ([11]; first compound 0.006325 µM): 0.935
relative viability ([11]; first compound 0.02 µM): 0.989
relative viability ([11]; first compound 0.06325 µM): 0.582
relative viability ([11]; first compound 0.2 µM): 0.451

CN1CCN(CCOc2cc(OC3CCOCC3)c3c(Nc4c(Cl)ccc5c4OCO5)ncnc3c2)CC1 [Saracatinib] + CS(=O)(=O)N1CCN(Cc2cc3nc(-c4cccc5[nH]ncc45)nc(N4CCOCC4)c3s2)CC1 [Pictilisib] (partner 1 µM)
relative viability ([1]; first compound 0.02 µM): 0.428
relative viability ([1]; first compound 0.2 µM): 0.399
relative viability ([1]; first compound 0.6325 µM): 0.491
relative viability ([1]; first compound 2 µM): 0.255
relative viability ([2]; first compound 0.02 µM): 0.563
relative viability ([2]; first compound 0.2 µM): 0.316
relative viability ([2]; first compound 0.6325 µM): 0.413
relative viability ([2]; first compound 2 µM): 0.302
relative viability ([3]; first compound 0.02 µM): 0.424
relative viability ([3]; first compound 0.2 µM): 0.408
relative viability ([3]; first compound 0.6325 µM): 0.431
relative viability ([3]; first compound 2 µM): 0.26
relative viability ([4]; first compound 0.02 µM): 0.858
relative viability ([4]; first compound 0.2 µM): 0.645
relative viability ([4]; first compound 0.6325 µM): 0.702
relative viability ([4]; first compound 2 µM): 0.613
relative viability ([5]; first compound 0.02 µM): 0.491
relative viability ([5]; first compound 0.2 µM): 0.412
relative viability ([5]; first compound 0.6325 µM): 0.515
relative viability ([5]; first compound 2 µM): 0.399
relative viability ([6]; first compound 0.02 µM): 0.507
relative viability ([6]; first compound 0.2 µM): 0.499
relative viability ([6]; first compound 0.6325 µM): 0.563
relative viability ([6]; first compound 2 µM): 0.5
relative viability ([7]; first compound 0.02 µM): 0.652
relative viability ([7]; first compound 0.2 µM): 0.571
relative viability ([7]; first compound 0.6325 µM): 0.767
relative viability ([7]; first compound 2 µM): 0.616
relative viability ([8]; first compound 0.02 µM): 0.33
relative viability ([8]; first compound 0.2 µM): 0.445
relative viability ([8]; first compound 0.6325 µM): 0.515
relative viability ([8]; first compound 2 µM): 0.37
relative viability ([9]; first compound 0.02 µM): 0.445
relative viability ([9]; first compound 0.2 µM): 0.397
relative viability ([9]; first compound 0.6325 µM): 0.387
relative viability ([9]; first compound 2 µM): 0.429
relative viability ([10]; first compound 0.02 µM): 0.228
relative viability ([10]; first compound 0.2 µM): 0.242
relative viability ([10]; first compound 0.6325 µM): 0.181
relative viability ([10]; first compound 2 µM): 0.203
relative viability ([11]; first compound 0.02 µM): 0.69
relative viability ([11]; first compound 0.2 µM): 0.528
relative viability ([11]; first compound 0.6325 µM): 0.387
relative viability ([11]; first compound 2 µM): 0.256
